The source of these data is patent publication US20120028252A1, “HUMAN MENA ISOFORMS SERVE AS MARKERS OF EPITHELIAL TO MESENCHYMAL TRANSITION AND SENSITIVITY TO EGFR INHIBITION IN HUMAN CANCER CELLS” (priority 2008, published 2012).

Experiment [1] deals with hMena and hMena^+11a in breast cancer cell lines. As to conditions: cited from earlier work.
Experiment [2] relates to hMena and hMena^+11a protein in Panc1 cells. In words: Western blot of hMena expression after EGF and erlotinib treatment, Panc1. The experiment is classed as cell-based, human. To be noted: EGF 50 and 100 ng/ml, 24 hours. The method, then: (§1) Cell treatments. Cells were grown in six-well plates to confluence in RPMI supplemented with 10% fetal bovine serum. After 18 hours in serum-free medium, the cells were treated with different amounts of rhEGF (Promega) for 24 hours. Erlotinib (10 μmol/L) was added 2 hours before EGF treatment. Western blot analyses. Cells were lysed as reported (32). Lysates (30 or 100 μg) were resolved on 10% polyacrylamide gel and transferred to nitrocellulose membranes (GE Healthcare, Piscataway, N.J.). Membranes were blocked in 5% non-fat milk in Tris-buffered saline (TBS) containing 0.1% Tween 20 (TBS-T) for 1 hour at room temperature, incubated overnight with relevant antibodies, washed, and probed with species-specific secondary antibodies coupled to horseradish peroxidase, and detected by enhanced chemiluminescence (Amersham Biosciences).

For experiment [3], the system named is hMena and hMena^+11a protein in BxPC3 cells. In words: Western blot of hMena expression after EGF and erlotinib treatment, BxPC3. The experiment is classed as cell-based, human. The method, then: as §1
The test system of experiment [4] is Hs766T pancreatic cancer cell line. Put plainly: Proliferation assay (cellular ATP, Vialight). It is filed as cell-based, human. To be noted: erlotinib 10 μmol/L.
Protocol: (§5) The effects of increasing concentrations of erlotinib (0.1 to 10 μmol/L) on cell proliferation were assessed by measuring the intracellular ATP content using the Vialight assay. Results are expressed as percentage inhibition of ATP incorporation relative to untreated cells. […] Proliferation assays. Cell proliferation was determined by measurement of cellular ATP levels with a high sensitivity cell proliferation/cytotoxicity kit (Vialight Plus, Cambrex Bio Sci Rockland Inc., Rockland, Me.). Briefly, cells were plated in 96-well plates at a density of 1×10^4 per well and exposed 24 hours later to various concentrations of erlotinib (0.1-10 μmol/L) in serum-free media. After 24 hours nucleotide (ATP) releasing reagent (100 μl) was added to each well and the plate was incubated for 10 min at room temperature. Cell lysate (180 μl) was transferred to a luminescence compatible plate. The 96-well plates were read using a Perkin Elmer LS 50B luminometer. ATP levels in cells were normalized to levels in untreated control cultures.
The test system of experiment [5] is MiaPaCa-2 pancreatic cancer cell line. In words: Proliferation assay (cellular ATP, Vialight). As to conditions: erlotinib 10 μmol/L. It is filed as cell-based, human.
Protocol: as §5
In experiment [6] the test system is Panc1 cells. Put plainly: Proliferation assay after hMena siRNA knock-down, Panc1. It is filed as cell-based, human. As to conditions: hMena siRNA construct (48 h) plus erlotinib (100 nM, 24 h). The method, then: (§2) Silencing of hMena reduces the baseline growth rate in BxPC3 compared with the growth rate of untransfected cells and cells transfected with non specific siRNA (45% vs 100%, P<0.01). […] Proliferation assays were conducted 72 h after the siRNA transfection.
(§3) Proliferation assays. Cell proliferation was determined by measurement of cellular ATP levels with a high sensitivity cell proliferation/cytotoxicity kit (Vialight Plus, Cambrex Bio Sci Rockland Inc., Rockland, Me.). Briefly, cells were plated in 96-well plates at a density of 1×10^4 per well and exposed 24 hours later to various concentrations of erlotinib (0.1-10 μmol/L) in serum-free media. After 24 hours nucleotide (ATP) releasing reagent (100 μl) was added to each well and the plate was incubated for 10 min at room temperature. Cell lysate (180 μl) was transferred to a luminescence compatible plate. The 96-well plates were read using a Perkin Elmer LS 50B luminometer. ATP levels in cells were normalized to levels in untreated control cultures.
(§4) Small interfering RNA treatment. Cells in exponential growth phase were transfected with 100 nmol/L hMena-specific pooled small interfering RNA (siRNA) duplexes (siENA SMART pool) or control non-specific siRNA (Dharmacon, Lafayette, Colo.) using LipofectAMINE 2000 reagent (Invitrogen, Paisley, United Kingdom). […]

Experiment [7] relates to BxPC3 cells. Put plainly: Proliferation assay after hMena siRNA knock-down, BxPC3. The experiment is classed as cell-based, human. The method, then: as §2, §3, §4
The subject of experiment [8] is L3.6 μl human pancreatic cancer cell line. Put plainly: Proliferation assay (cellular ATP, Vialight). The experiment is classed as cell-based. To be noted: erlotinib 1 μmol/L, 24 hours, serum-free media.
Protocol: (§6) The effects of increasing concentrations of erlotinib (0.1 to 10 μmol/L) on cell proliferation were assessed by measuring the intracellular ATP content using the Vialight assay. Results are expressed as percentage inhibition of ATP incorporation relative to untreated cells. […] Cell proliferation was determined by measurement of cellular ATP levels with a high sensitivity cell proliferation/cytotoxicity kit (Vialight Plus, Cambrex Bio Sci Rockland Inc., Rockland, Me.). Briefly, cells were plated in 96-well plates at a density of 1×10^4 per well and exposed 24 hours later to various concentrations of erlotinib (0.1-10 μmol/L) in serum-free media. After 24 hours nucleotide (ATP) releasing reagent (100 μl) was added to each well and the plate was incubated for 10 min at room temperature. Cell lysate (180 μl) was transferred to a luminescence compatible plate. The 96-well plates were read using a Perkin Elmer LS 50B luminometer. ATP levels in cells were normalized to levels in untreated control cultures.
The subject of experiment [9] is T3M4 pancreatic cancer cell line. In words: Proliferation assay (cellular ATP, Vialight). It is filed as cell-based. To be noted: Homo sapiens, erlotinib 1 μmol/L, 24 hours, serum-free media.
Protocol: as §6
Experiment [10] has as its system Panc1 pancreatic cancer cell line. In words: Proliferation assay (cellular ATP, Vialight). The experiment is classed as cell-based, human. To be noted: erlotinib 10 μmol/L.
Protocol: as §5
Experiment [11] concerns PT45 pancreatic cancer cell line. Put plainly: Proliferation assay (cellular ATP, Vialight). As to conditions: erlotinib 10 μmol/L. The experiment is classed as cell-based, human.
Protocol: as §6
In experiment [12] the test system is BxPC3 pancreatic cancer cell line. In words: Proliferation assay (cellular ATP, Vialight). It is filed as cell-based. To be noted: Homo sapiens, BXPC-3; erlotinib 1 μmol/L, 24 hours, serum-free media.
Protocol: as §6
Experiment [13] has as its system PACA44 pancreatic cancer cell line. In words: Proliferation assay (cellular ATP, Vialight). It is filed as cell-based. As to conditions: Homo sapiens, PaCa-44; erlotinib 1 μmol/L, 24 hours, serum-free media.
Protocol: as §6

Turning to “EGF: Recombinant human EGF purchased from Promega (NSDSECPLSHDGYCLHDGVCMYIEALDKYACNCVVGYIGERCQYRDLKWWELR; UniProt P01133 971-1023, looked up)”, the “hMena and hMena^+11a expression” value in experiment [1] (EGF treatment of breast cancer cell lines) is “up-regulation”. The “hMena^+11a expression and phosphorylation” value in [1] (HER2 activation by EGF and NRG1 treatment, breast cancer cell lines) was “up-regulation and phosphorylation”. Also, the “hMena and hMena^+11a protein level” value in [2] is recorded as “clearly increased”; in experiment [3] (EGF 50 and 100 ng/ml, 24 hours, BxPC3) it was “clearly increased”.
In the case of `COc1cc2ncnc(Nc3cccc(Cl)c3)c2cc1OC` [AG1478], the “EGF-promoted up-regulation of hMena and hMena^+11a and increase of phosphorylated hMena^+11a” value in experiment [1] (pre-treatment of breast cancer cell lines before EGF) was “inhibited”.
In the case of `C#Cc1cccc(Nc2ncnc3cc(OCCOC)c(OCCOC)cc23)c1` [erlotinib], the growth rate entry in experiment [4], in experiment [5], in experiment [10] and in experiment [11] was “not significantly affected” in each case. Moreover, the “proliferation, combined exposure” value is given as “did not” in experiment [6] and “additive decrease” in experiment [7] (hMena siRNA construct (48 h) plus erlotinib (100 nM, 24 h), BxPC3). In experiment [7] (hMena-silenced BxPC3 cells treated with erlotinib 0.1 μM/L for 24 h), the cell proliferation result is “dramatic decrease”. Moreover, the inhibition at 1 µM in experiment [8], in experiment [9], in experiment [12] and in [13] was not below 50% in each case. The hMena expression result in experiment [3] (erlotinib (10 μmol/L, 2 hours before EGF) added to EGF-treated BxPC3 cells) is “down regulated”.
